Tests used:
free GFP = molecular target: T1, free GFP (Aequorea victoria, UniProt P42212); assay: MST ligand-binding assay, free GFP negative control; conditions: SW480 cell lysates, negative controls, two parallels
T1 construct: expressed in transfected cells; host or cells: SW480
Protocol: Ten million SW480 cells overexpressing GFP-tagged SHPRH or free GFP were lysed in 1 mL radioimmunoprecipitation assay (RIPA) buffer. Cell lysates were diluted in buffer A [50 mM Hepes buffer (pH 7.5), 5 mM DTT, 10 mM CaCl2), 50 mM NaCl, and 0.05% Tween-20] to a final concentration at which the fluorescent signals of the GFP proteins were similar and well above the detection limit of the Monolith NT.115 instrument (NanoTemper Technologies GmbH). Ten microliters of each receptor were mixed with 10 μL of the ligand at various concentrations from 100 μM to 3.05 nM. Specifically, the ligand (4 mM in 100% DMSO) was diluted 1:20 to a final concentration of 200 μM in buffer A (giving 5% DMSO). Ten microliters of the 200 μM ligand solution was further serially diluted 1:1 in 10 μL of buffer A supplemented with 5% DMSO to make a 16-sample dilution series down to 6.1 nM. Ten microliters of the cell lysate were added to 10 μL of each ligand solution. […] The fluorescence signal during the thermophoresis was monitored for 30 s, and the change in fluorescence was analyzed as thermophoresis with T-jump. The Kd was calculated by fitting a standard binding curve to the average of four independent dilution series.

SW480-7TGC cells = assay: Flow cytometry of SW480-7TGC cells with Hoechst33342; format: cell-based; conditions: 24 hours
Protocol: To establish stable cell lines containing Wnt reporters, lentiviral vector 7TGC or 7TC together with packaging plasmids pMD2.G and pCMVR8.74 were co-transfected into 293FT cells with lipofectamine 3000. After 16 hours, culture medium was replaced with medium for cells of interest. One day later, the culture medium was filtered through a 0.45 μm filter and incubated with cells for 24 hours. The transduced cells were assessed by fluorescence microscopy and fluorescence-activated cell sorting (FACS Aria, BD Biosciences).

MED23 [1] = molecular target: T2, MED23 (Homo sapiens, UniProt Q9ULK4); assay: Cellular thermal shift assay (CETSA), MED23; format: binding; conditions: SW480, 10 μM
T2 construct: endogenous in cells; host or cells: SW480
T2 sequence (Q9ULK4 1-1368): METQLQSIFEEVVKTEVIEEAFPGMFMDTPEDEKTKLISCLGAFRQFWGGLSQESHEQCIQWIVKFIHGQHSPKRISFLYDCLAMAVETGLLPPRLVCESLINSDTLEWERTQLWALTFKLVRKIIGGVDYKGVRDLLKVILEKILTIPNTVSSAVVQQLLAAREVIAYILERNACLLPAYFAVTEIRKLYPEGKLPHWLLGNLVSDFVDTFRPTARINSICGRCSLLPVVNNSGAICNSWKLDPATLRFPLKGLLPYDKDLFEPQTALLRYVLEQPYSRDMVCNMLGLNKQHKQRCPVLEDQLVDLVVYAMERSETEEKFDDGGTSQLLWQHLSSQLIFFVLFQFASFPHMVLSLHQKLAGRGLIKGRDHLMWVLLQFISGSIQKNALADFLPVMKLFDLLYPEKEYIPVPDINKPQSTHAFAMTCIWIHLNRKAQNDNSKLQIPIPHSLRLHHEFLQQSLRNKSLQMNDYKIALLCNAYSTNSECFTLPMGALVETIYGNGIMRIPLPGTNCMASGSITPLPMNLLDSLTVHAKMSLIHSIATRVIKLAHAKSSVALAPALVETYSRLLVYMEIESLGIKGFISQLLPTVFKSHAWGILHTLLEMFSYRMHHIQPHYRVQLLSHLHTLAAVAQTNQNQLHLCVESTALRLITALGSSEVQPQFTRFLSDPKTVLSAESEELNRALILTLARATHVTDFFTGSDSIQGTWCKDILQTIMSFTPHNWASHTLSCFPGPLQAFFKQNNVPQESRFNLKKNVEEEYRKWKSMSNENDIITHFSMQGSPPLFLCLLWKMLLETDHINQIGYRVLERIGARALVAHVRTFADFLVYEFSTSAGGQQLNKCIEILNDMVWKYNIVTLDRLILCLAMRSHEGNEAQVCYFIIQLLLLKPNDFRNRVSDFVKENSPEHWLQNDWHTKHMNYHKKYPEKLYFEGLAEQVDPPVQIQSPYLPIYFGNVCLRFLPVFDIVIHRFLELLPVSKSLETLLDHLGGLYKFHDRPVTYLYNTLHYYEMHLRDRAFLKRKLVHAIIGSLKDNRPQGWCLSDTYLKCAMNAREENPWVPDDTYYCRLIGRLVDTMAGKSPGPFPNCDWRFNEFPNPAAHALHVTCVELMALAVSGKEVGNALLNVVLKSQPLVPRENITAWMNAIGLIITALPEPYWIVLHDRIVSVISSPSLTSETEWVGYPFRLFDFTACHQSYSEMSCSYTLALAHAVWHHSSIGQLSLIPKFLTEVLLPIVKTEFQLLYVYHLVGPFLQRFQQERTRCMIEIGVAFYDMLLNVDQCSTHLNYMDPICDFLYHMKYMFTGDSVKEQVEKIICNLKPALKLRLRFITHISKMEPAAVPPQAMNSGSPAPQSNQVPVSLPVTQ
Protocol: CETSA in intact cells was performed according to the protocol previously described (Martinez Molina, D. et al., 2013, Science 341, 84-87). Briefly, SW480 cells were seeded equally in 2 T75 flasks and allowed to reach 80% confluence one day after. […] After trypsinization and PBS wash, cells were resuspended in 450 μl PBS containing freshly added protease inhibitors and equally divided between 7 tubes. Cells in each tube were heated at indicated temperatures for 3 minutes and kept at room temperature for 3 minutes. Heated cells were lysed by 3 cycles of freezing in liquid nitrogen (1 minute) and thawing in room temperature water (1 minute). The cell lysates were centrifuged at 20,000 g for 20 minutes at 4° C. The soluble fractions were isolated for Western blotting analysis.

MED23 [2] = molecular target: T2, MED23; assay: Chromatin immunoprecipitation (ChIP) of MED23 at Wnt target genes; format: cell-based; conditions: SW480, 5 μM overnight
Protocol: ChIP was performed according to the protocol previously described with a few modifications on the crosslinking procedures (Ke, X. S. et al., 2009, PLoS One 4, e4687). […] The reaction was quenched with 1/50 volume of 2.5 M glycine. Cells were lysed and the nuclei were sonicated to fragments ranging from 200 bp to 500 bp. After saving 0.2% total chromatin for input DNA purification, sonicated lysates were equally divided to three tubes and immunoprecipitated with Protein G beads (Life technologies, 10004D) coupled with 5 μg mouse IgG (15381, Sigma), antibody against MED23(BD550429, clone D27-1805, BD Biosciences) and β-catenin (ab22656, clone 12F7, Abcam), respectively. The immunoprecipitated DNA was purified and examined by PCR described below.
To determine the purified DNA from ChIP samples, quantitative PCR was performed with RT^2 SYBR Green/ROX PCR Master Mix and the PCR reactions were examined by 2% agarose gel electrophoresis. PCR primers were designed to cover the canonical TCF/β-catenin binding motifs of 6 randomly chosen β-catenin target genes (shown in FIG. 4c). The sequences and genomic locations (NCBI36/hg18) of PCR primers are listed below. GAPDH was used as a negative control.

How did the “binding of the ligand to free GFP” value (free GFP) turn out when `CNC(=O)c1ccccc1Sc1ccc2c(/C=C/c3ccccn3)n[nH]c2c1` [axitinib, N-Methyl-2-[[3-[(E)-2-pyridin-2-ylethenyl]-1H-indazol-6-yl]sulfanyl]benzamide] was run?
The value was “did not show any binding”.

And the “TCF-GFP^low cells” value (SW480-7TGC cells)?
Its value is “increased”.

What about the “apoptosis in TCF-GFP^low cells” value (SW480-7TGC cells; Hoechst33342) of the same compound?
Its value is “induced apoptosis”.

What about the “direct binding in intact living cells” value (MED23 [1]) of the same compound?
Its value is “confirmed”.

What about the “MED23 occupancy at TCF/LEF-binding motifs of Wnt target genes” value (MED23 [2]) of the same compound?
Its value is “reduced”.

From patent US20180344715A1, “WNT/BETA-CATENIN SIGNAL TRANSDUCTION INHIBITORS AND THEIR USE IN TREATMENT OR PREVENTION OF DISEASES AND CONDITIONS LINKED WITH SAID TRANSDUCTION” (BERGEN TEKNOLOGIOVERFORING AS, priority 2015, published 2018)
